Data published in patent US20210403606A1, “METHOD FOR SEPARATING AND PURIFYING POLYSACCHARIDES FROM GANODERMA SPORES” (ZHONGKE HEALTH INDUSTRY GROUP JIANGSU PHARMACEUTICAL CO., …, priority 2018, published 2021).

Experiments:
transplanted tumor Heps = assay: Inhibitory effects on the transplanted tumor Heps in mice by tail vein injection; type: in vivo, ICR mice
Description: (§1) 1.2. Animals: ICR mice, 18-22 g, half males and half females, provided by the Animal Laboratory of China Pharmaceutical University. The animals were fed with pellet feed in an air-conditioned room at a temperature of 18-24° C., and a relative humidity of 70%.
3.1. Inhibitory effects of No. 1, No. 2, and No. 3 on the transplanted tumor Heps in mice by tail vein injection
3.1.1. Route of administration: No. 1, No. 2, and No. 3 are administrated by tail vein injection (iv).
(§2) 3.1.2. Schedule of administration: the mice are inoculated with solid-type Heps tumors according to protocols of transplanted tumor research, and 24 hours after inoculation, the medicines are intravenously administered once every other day for a total of 4 doses. On the day after stopping administration, the mice are sacrificed and dissected.
3.1.3. Dose setting: There are 6 groups in total, namely:
3.1.4. Volume of administration: 0.4 ml/20 g
(§3) 3.1.5. Test method: 60 mice of the foregoing specification were inoculated with solid-type Heps tumors according to protocols of the transplanted tumor research. The mice were weighed 24 hours after inoculation, and randomly divided into 6 groups, each with 10 mice, having half males and half females. The blank control group and the CTX group were respectively used as a negative control group and a positive control group. 24 hours after inoculation, the medicines were intravenously administered once every other day for a total of 4 doses. The mice were weighed on the day after stopping administration. The tumor-bearing mice were sacrificed, and the tumor masses were separated and weighed, and the obtained data was statistically processed (t-test).

transplanted tumor S180 = assay: Inhibitory effects on the transplanted tumor S180 in mice by tail vein injection; type: in vivo, ICR mice
Description: as §1
3.2. Inhibitory effects of No. 1, No. 2, and No. 3 on the transplanted tumor S180 in mice by tail vein injection
3.2.1. Route of administration: No. 1, No. 2, and No. 3 are administrated by tail vein injection (iv).
as §2, with “3.2.2.” for “3.1.2.”, “5180” for “Heps”
3.2.3. Dose setting: There are 6 groups in total, namely:
3.2.4. Volume of administration: 0.4 ml/20 g
as §3, with “3.2.5.” for “3.1.5.”, “5180” for “Heps”

O=P1(N(CCCl)CCCl)NCCCO1 (centres unmarked) [CTX, Cyclophosphamide]
Tumor inhibition rate (transplanted tumor Heps; Heps, 30 mg/kg once every other day, 4 doses): 74.20% | Tumor weight (transplanted tumor Heps; Heps, 30 mg/kg once every other day, 4 doses, X ± SD, n = 10): 0.42 ± 0.19 g | Weight After administration (transplanted tumor Heps; Heps-bearing mice, 30 mg/kg once every other day, 4 doses, X ± SD, n = 10): 23.2 ± 2.74 | Weight Before administration (transplanted tumor Heps; Heps-bearing mice, 30 mg/kg, baseline body weight, X ± SD, n = 10): 20.0 ± 1.36 | Tumor inhibition rate (transplanted tumor S180; S180, 30 mg/kg once every other day, 4 doses): 65.71% | Tumor weight (transplanted tumor S180; S180, 30 mg/kg once every other day, 4 doses, X ± SD, n = 10): 0.55 ± 0.18 g | Weight After administration (transplanted tumor S180; S180-bearing mice, 30 mg/kg once every other day, 4 doses, X ± SD, n = 10): 23.2 ± 2.74 | Weight Before administration (transplanted tumor S180; S180-bearing mice, 30 mg/kg, baseline body weight, X ± SD, n = 10): 20.1 ± 1.28
